This passage reports EC50 and activation results from EP3789378A1, “PIPERIDINES OR PIPERIDONES SUBSTITUTED WITH UREA AND HETEROARYL” (Grünenthal GmbH, priority 2019, dated 2021).

pEC50: −log10 of the molar value.

The target in one assay is T1, h FPR2 (Homo sapiens, UniProt P25090).
T1 construct: expressed in transfected cells
T1 sequence (P25090 1-351): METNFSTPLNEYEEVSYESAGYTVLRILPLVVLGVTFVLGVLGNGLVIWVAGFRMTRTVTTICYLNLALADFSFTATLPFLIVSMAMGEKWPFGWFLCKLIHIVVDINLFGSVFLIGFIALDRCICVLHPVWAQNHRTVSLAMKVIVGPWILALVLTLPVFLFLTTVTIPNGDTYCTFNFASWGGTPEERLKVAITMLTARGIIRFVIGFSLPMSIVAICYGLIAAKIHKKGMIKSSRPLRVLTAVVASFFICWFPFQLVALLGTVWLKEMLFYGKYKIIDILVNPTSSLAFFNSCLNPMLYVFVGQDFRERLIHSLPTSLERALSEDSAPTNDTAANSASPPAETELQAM
The experiment in a line: Agonistic activity in hFPR2-Aq-CHO cells (FLIPR Calcium 5 fluorescence assay). It counts as cell-based. Conditions: 11 point half log dilution, final assay concentration from 10µM. In a few lines:
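EC50 reflects the compound-evoked rise in Calcium 5 fluorescence over basal, recorded for 5 min on FLIPR and compared with no-compound wells. Dye-loaded hFPR2-Aq-CHO cells received half-log dilutions from 10 µM to 100 pM final in pH 7.4 HBSS buffer.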
`COc1ccc([C@@H]2CN(C(=O)c3cnccc3C)CC[C@H]2NC(=O)Nc2ccc(Cl)cc2)nc1` (single isomer, unassigned) [Ex-53, trans-1-(4-chlorophenyl)-3-[3-(5-methoxypyridin-2-yl)-1-[(4-methylpyridin-3-yl)carbonyl]piperidin-4-yl]urea]: the pEC50 (commonly −log10 of the EC50, conventionally taken in molar units) was 7.30. Still for that read-out and setting: with `CNC(=O)CN1CC[C@H](NC(=O)Nc2ccc(Cl)cc2)[C@@H](c2ccc(OC)cn2)C1` [Ex-215] the figure was 9.52; with `COc1ccc([C@@H]2CNCC[C@H]2NC(=O)Nc2ccc(Cl)cc2)nc1` (relative stereo) [Ex-112, trans-1-(4-chlorophenyl)-3-[3-(5-methoxypyridin-2-yl)piperidin-4-yl]urea], 8.92; with `Cc1cc(CN2CC[C@@H](NC(=O)Nc3ccc(Cl)cc3)[C@H](c3ccc(Cl)s3)C2)no1` (single isomer, unassigned) [Ex-44, trans-1-(4-chlorophenyl)-3-[3-(5-chlorothiophen-2-yl)-1-[(5-methyl-1,2-oxazol-3-yl)methyl]piperidin-4-yl]urea], 9.00. Same read-out and setting: with `COC1CCC(CN2CC[C@@H](NC(=O)Nc3ccc(Cl)cc3)[C@H](c3ccc(Cl)s3)C2)CC1` (relative stereo) [Ex-116, trans-1-(4-chloro-phenyl)-3-[3-(5-chloro-thiophen-2-yl)-1-(4-methoxy-cyclohexylmethyl)-piperidin-4-yl]-urea] the figure was 8.05; with `COc1ccc([C@@H]2CN(C(=O)C3CNC3)CC[C@H]2NC(=O)Nc2ccccc2)nc1` (racemic) [Ex-165, trans-1-[1-(Azetidine-3-carbonyl)-3-(5-methoxy-pyridin-2-yl)-piperidin-4-yl]-3-phenyl-urea], 7.96; with `O=C(Nc1ccccc1)N[C@@H]1CCN(CC2CNC2)C[C@H]1c1ccc(Cl)cn1` (relative stereo) [Ex-186, trans-1-(1'-azetidin-3-ylmethyl-5-chloro-1',2',3',4',5',6'-hexahydro-[2,3']bipyridinyl-4'-yl)-3-phenyl-urea], 7.57. The same measure, in the same setting: next, `COc1ccc([C@@H]2CN(Cc3cnn(S(C)(=O)=O)c3)CC[C@H]2NC(=O)Nc2ccc(C#N)cc2)nc1` (relative stereo) [Ex-140, trans-1-(4-Cyano-phenyl)-3-[3-(5-methoxy-pyridin-2-yl)-1-[(1-methylsulfonyl-1H-pyrazol-4-yl)-methyl]-piperidin-4-yl]-urea]: 9.05; `COc1ccc([C@@H]2CN(CC3COC3)CC[C@H]2NC(=O)Nc2ccc(Cl)cc2)nc1` (relative stereo) [Ex-109, trans-1-(4-chloro-phenyl)-3-(5-methoxy-1'-oxetan-3-ylmethyl-1',2',3',4',5',6'-hexahydro-[2,3']bipyridinyl-4'-yl)-urea]: 8.92. Take `COCCN1CC[C@@H](NC(=O)Nc2ccc(Cl)cc2)[C@H](c2ncc(OC)cc2F)C1` (relative stereo) [Ex-198, trans-1-(4-chloro-phenyl)-3-[3-fluoro-5-methoxy-1'-(2-methoxy-ethyl)-1',2',3',4',5',6'-hexahydro-[2,3']bipyridinyl-4'-yl]-urea]: the pEC50 is 9.40. Same read-out and setting: with `COc1ccc([C@@H]2CN(C(=O)C3CCN(C)CC3)CC[C@H]2NC(=O)Nc2ccc(Cl)cc2)nc1` (racemic) [Ex-89, trans-1-(4-chloro-phenyl)-3-[5-methoxy-1'-(1-methyl-piperidine-4-carbonyl)-1',2',3',4',5',6'-hexahydro-[2,3']bipyridinyl-4'-yl]-urea] the figure was 8.70; with `CN1CCC(C(=O)N2CC[C@@H](NC(=O)Nc3ccc(Cl)cc3)[C@H](c3ccc(Cl)s3)C2)CC1` (relative stereo) [Ex-104, trans-1-(4-chloro-phenyl)-3-[3-(5-chloro-thiophen-2-yl)-1-(1-methyl-piperidine-4-carbonyl)-piperidin-4-yl]-urea], 8.22. For the compound `COc1ccc([C@@H]2CN(Cc3ccc(C(F)(F)F)nc3)CC[C@H]2NC(=O)Nc2ccc(Cl)cc2)nc1` (relative stereo) [Ex-60, trans-1-(4-chlorophenyl)-3-(3-(5-methoxypyridin-2-yl)-1-((6-(trifluoromethyl)pyridin-3-yl)methyl)piperidin-4-yl)urea], the pEC50 is 10.40. Same read-out and setting: with `COc1ccc([C@@H]2CN(CC(F)F)CC[C@H]2NC(=O)Nc2ccc(Cl)cc2)nc1` (single isomer, unassigned) [Ex-35, trans-1-(4-chlorophenyl)-3-[1-(2,2-difluoroethyl)-3-(5-methoxypyridin-2-yl)piperidin-4-yl]urea] the figure was 10.22. Same read-out and setting: next, `COc1ccc([C@@H]2CN(CC(N)=O)CC[C@H]2NC(=O)Nc2ccc(Cl)cc2)nc1` (single isomer, unassigned) [Ex-170, trans-2-[4-[[(4-Chlorophenyl)-carbamoyl]amino]-3-(5-methoxy-pyridin-2-yl)-piperidin-1-yl]-acetamide]: 9.52; `COc1ccc([C@@H]2CN(CC3CC3)CC[C@H]2NC(=O)Nc2ccc(Cl)cc2)nc1` (relative stereo) [Ex-127, trans-1-(4-Chlorophenyl)-3-[1-(cyclopropyl-methyl)-3-(5-methoxy-pyridin-2-yl)-piperidin-4-yl]-urea]: 9.80. The same measure, in the same setting: next, `Cc1cc(NC(=O)N[C@@H]2CCN(Cc3cc(C)on3)C[C@H]2c2ccc(Cl)s2)sn1` (single isomer, unassigned) [Ex-49, trans-1-[3-(5-chlorothiophen-2-yl)-1-[(5-methyl-1,2-oxazol-3-yl)methyl]piperidin-4-yl]-3-(3-methyl-1,2-thiazol-5-yl)urea]: 9.52; `COC1CCC(C(=O)N2CC[C@@H](NC(=O)Nc3ccc(Cl)cc3)[C@H](c3ccc(Cl)s3)C2)CC1` (relative stereo) [Ex-107, trans-1-(4-chloro-phenyl)-3-[3-(5-chloro-thiophen-2-yl)-1-(4-methoxy-cyclohexanecarbonyl)-piperidin-4-yl]-urea]: 7.34. For `COc1ccc([C@@H]2CN(C(=O)c3ccc(C(F)(F)F)nc3)CC[C@H]2NC(=O)Nc2ccc(Cl)cc2)nc1` (single isomer, unassigned) [Ex-101, trans-1-(4-chlorophenyl)-3-[(5-methoxypyridin-2-yl)-1-{[6-(trifluoromethyl)pyridin-3-yl]carbonyl}piperidin-4-yl]urea], the pEC50 was 9.96.

With `COc1ccc([C@@H]2CN(C(C)(C)CO)CC[C@H]2NC(=O)Nc2ccc(Cl)cc2)nc1` (relative stereo) [Ex-219, trans-1-(4-chloro-phenyl)-3-[1'-(2-hydroxy-1,1-dimethyl-ethyl)-5-methoxy-1',2',3',4',5',6'-hexahydro-[2,3']bipyridinyl-4'-yl]-urea], the pEC50 was 7.42. On the same count and under the same terms, next, `COc1ccc([C@@H]2CN(CC3CCN(C)CC3)CC[C@H]2NC(=O)Nc2ccc(Cl)cc2)nc1` (relative stereo) [Ex-147, trans-1-(4-Chlorophenyl)-3-[3-(5-methoxy-pyridin-2-yl)-1-[(1-methyl-piperidin-4-yl)-methyl]-piperidin-4-yl]-urea]: 9.40. The same measure, in the same setting: next, `Cc1cc(NC(=O)N[C@@H]2CCN(c3ccnc(C(F)(F)F)n3)C[C@H]2c2ccc(Cl)cn2)sn1` (relative stereo) [Ex-28, trans-1-[5-chloro-1'-(2-trifluoromethyl-pyrimidin-4-yl)-1',2',3',4',5',6'-hexahydro-[2,3']bipyridinyl-4'-yl]-3-(3-methyl-isothiazol-5-yl)-urea]: 7.77. The same measure, in the same setting: with `CS(=O)(=O)n1ccc(CN2CC[C@@H](NC(=O)Nc3ccc(Cl)cc3)[C@H](c3ccc(Cl)s3)C2)n1` (single isomer, unassigned) [Ex-78, trans-1-(4-chlorophenyl)-3-[3-(5-chlorothiophen-2-yl)-1-[(1-methanesulfonyl-1H-pyrazol-3-yl)methyl]piperidin-4-yl]urea] the figure was 7.28. With `Cc1ncc(CN2CC[C@@H](NC(=O)Nc3ccc(Cl)cc3)[C@H](c3ccc(Cl)s3)C2)cn1` (relative stereo) [Ex-76, trans-1-(4-chlorophenyl)-3-[3-(5-chlorothiophen-2-yl)-1-[(2-methylpyrimidin-5-yl)methyl]piperidin-4-yl]urea], the pEC50 was 8.70.

Still in this assay, the particulars now being: agonistic response at 0.1µM.
As for `COc1ccc([C@@H]2CN(CC(N)=O)CC[C@H]2NC(=O)Nc2ccc(Cl)cc2)nc1` (relative stereo) [Ex-171, trans-2-[4-[[(4-Chlorophenyl)-carbamoyl]amino]-3-(5-methoxy-pyridin-2-yl)-piperidin-1-yl]-acetamide], the activation at 0.1 µM stood at 3%. Same read-out and setting: next, `COc1ccc([C@@H]2CN(CC(C)(C)O)CC[C@H]2NC(=O)Nc2cc(C)ns2)nc1` (relative stereo) [Ex-176, trans-1-[1-(2-Hydroxy-2-methyl-propyl)-3-(5-methoxy-pyridin-2-yl)-piperidin-4-yl]-3-(3-methyl-isothiazol-5-yl)-urea]: 5%; `COc1ccc([C@@H]2CN(c3ccncn3)C(=O)C[C@H]2NC(=O)Nc2ccc(Cl)cc2)nc1` (relative stereo) [Ex-25, trans-1-(4-chlorophenyl)-3-[5-(5-methoxypyridin-2-yl)-2-oxo-1-(pyrimidin-4-yl)piperidin-4-yl]urea]: 17%. Same read-out and setting: next, `O=C(Nc1ccc(Cl)cc1)N[C@@H]1CCN(C(=O)CCO)C[C@H]1c1ccc(Cl)s1` (relative stereo) [Ex-131, trans-1-(4-Chlorophenyl)-3-[3-(5-chloro-thiophen-2-yl)-1-(3-hydroxy-propanoyl)-piperidin-4-yl]-urea]: 38%.
